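These data come from cells grown in 96-well plates and exposed to compound for 48 hours at five concentrations. GI50: concentration for 50% inhibition of growth.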 Activity calls are given as the source filed them. No stated cut-off is given here; in the data, active = GI50 up to about 1.1 µM and inactive = higher.
Assays:
Test in all cases: DTP human tumour cell line panel, 48 h
[1] = tested on: 786-0
[2] = tested on: A498
[3] = tested on: A549
[4] = tested on: ACHN
[5] = tested on: BT-549
[6] = tested on: CAKI-1
[7] = tested on: CCRF-CEM
[8] = tested on: COLO 205
[9] = tested on: DU-145
[10] = tested on: EKVX
[11] = tested on: HCT-116
[12] = tested on: HCT-15
[13] = tested on: HL-60
[14] = tested on: HOP-62
[15] = tested on: HOP-92
[16] = tested on: HT-29
[17] = tested on: Hs-578T
[18] = tested on: KM12
[19] = tested on: M14
[20] = tested on: MCF7
[21] = tested on: MDA-MB-435
[22] = tested on: MDA-N
[23] = tested on: MOLT-4
[24] = tested on: Malme-3M
[25] = tested on: NCI-H226
[26] = tested on: NCI-H23
[27] = tested on: NCI-H460
[28] = tested on: NCI-H522
[29] = tested on: NCI/ADR-RES
[30] = tested on: OVCAR-3
[31] = tested on: OVCAR-4
[32] = tested on: OVCAR-5
[33] = tested on: OVCAR-8
[34] = tested on: PC-3
[35] = tested on: RXF 393
[36] = tested on: SF-268
[37] = tested on: SF-295
[38] = tested on: SF-539
[39] = tested on: SK-MEL-28
[40] = tested on: SK-MEL-2
[41] = tested on: SK-MEL-5
[42] = tested on: SK-OV-3
[43] = tested on: SN12C
[44] = tested on: SNB-19
[45] = tested on: SNB-75
[46] = tested on: SR
[47] = tested on: SW-620
[48] = tested on: T47D
[49] = tested on: TK-10
[50] = tested on: U-251
[51] = tested on: UACC-257
[52] = tested on: UACC-62
[53] = tested on: UO-31
[54] = tested on: HCC 2998
[55] = tested on: IGROV-1
[56] = tested on: K562
[57] = tested on: LOX IMVI
[58] = tested on: MDA-MB-231
[59] = tested on: RPMI-8226

**Q.** How did the GI50 [1] turn out when `COC1(C2c3ccccc3CCN2C(=O)OC(C)(C)C)C(=O)C(c2ccccc2)=C1N(C)C` (stereo not given) was run?
**A.** 26.9 µM (inactive)

**Q.** What about the GI50 [2] of the same compound?
**A.** 25.4 µM (inactive)

**Q.** And the GI50 [3]?
**A.** 27.5 µM (inactive)

**Q.** What about the GI50 [4] of the same compound?
**A.** 33.5 µM (inactive)

**Q.** What about the GI50 [5] of the same compound?
**A.** 27.9 µM (inactive)

**Q.** And the GI50 [6]?
**A.** 45.7 µM (inactive)

**Q.** What about the GI50 [7] of the same compound?
**A.** 38.9 µM (inactive)

**Q.** And the GI50 [8]?
**A.** 18.5 µM (inactive)

**Q.** What about the GI50 [9] of the same compound?
**A.** 55.8 µM (inactive)

**Q.** What about the GI50 [10] of the same compound?
**A.** 40.6 µM (inactive)

**Q.** What about the GI50 [11] of the same compound?
**A.** 25.7 µM (inactive)

**Q.** What about the GI50 [12] of the same compound?
**A.** 30.9 µM

**Q.** And the GI50 [13]?
**A.** 19.7 µM (inactive)

**Q.** What about the GI50 [14] of the same compound?
**A.** 37 µM (inactive)

**Q.** What about the GI50 [15] of the same compound?
**A.** 44.8 µM (inactive)

**Q.** And the GI50 [16]?
**A.** 18.1 µM (inactive)

**Q.** What about the GI50 [17] of the same compound?
**A.** 32.7 µM (inactive)

**Q.** And the GI50 [18]?
**A.** 34.4 µM (inactive)

**Q.** And the GI50 [19]?
**A.** 27.3 µM (inactive)

**Q.** What about the GI50 [20] of the same compound?
**A.** 44.8 µM (inactive)

**Q.** What about the GI50 [21] of the same compound?
**A.** 22.9 µM (inactive)

**Q.** And the GI50 [22]?
**A.** 21.5 µM (inactive)

**Q.** And the GI50 [23]?
**A.** 43.3 µM (inactive)

**Q.** What about the GI50 [24] of the same compound?
**A.** 35.2 µM (inactive)

**Q.** And the GI50 [25]?
**A.** 19.7 µM (inactive)

**Q.** What about the GI50 [26] of the same compound?
**A.** 23.3 µM (inactive)

**Q.** And the GI50 [27]?
**A.** 29.8 µM (inactive)

**Q.** What about the GI50 [28] of the same compound?
**A.** 21.2 µM (inactive)

**Q.** What about the GI50 [29] of the same compound?
**A.** 21.1 µM (inactive)

**Q.** And the GI50 [30]?
**A.** 27.7 µM (inactive)

**Q.** What about the GI50 [31] of the same compound?
**A.** 46.9 µM (inactive)

**Q.** What about the GI50 [32] of the same compound?
**A.** 74.5 µM (inactive)

**Q.** And the GI50 [33]?
**A.** 68.7 µM (inactive)

**Q.** What about the GI50 [34] of the same compound?
**A.** 25.2 µM (inactive)

**Q.** What about the GI50 [35] of the same compound?
**A.** 30.2 µM (inactive)

**Q.** And the GI50 [36]?
**A.** 45.1 µM (inactive)

**Q.** What about the GI50 [37] of the same compound?
**A.** 30.8 µM (inactive)

**Q.** What about the GI50 [38] of the same compound?
**A.** 19.1 µM (inactive)

**Q.** And the GI50 [39]?
**A.** 62.4 µM (inactive)

**Q.** What about the GI50 [40] of the same compound?
**A.** 27.3 µM (inactive)

**Q.** What about the GI50 [41] of the same compound?
**A.** 20.7 µM (inactive)

**Q.** What about the GI50 [42] of the same compound?
**A.** 37.9 µM (inactive)

**Q.** What about the GI50 [43] of the same compound?
**A.** 17.1 µM (inactive)

**Q.** And the GI50 [44]?
**A.** 27.5 µM (inactive)

**Q.** And the GI50 [45]?
**A.** 43.6 µM (inactive)

**Q.** And the GI50 [46]?
**A.** 79.3 µM (inactive)

**Q.** What about the GI50 [47] of the same compound?
**A.** 37.8 µM (inactive)

**Q.** What about the GI50 [48] of the same compound?
**A.** 53.7 µM (inactive)

**Q.** And the GI50 [49]?
**A.** 48.2 µM (inactive)

**Q.** And the GI50 [50]?
**A.** 37.2 µM (inactive)

**Q.** And the GI50 [51]?
**A.** 40.6 µM (inactive)

**Q.** And the GI50 [52]?
**A.** 30.5 µM (inactive)

**Q.** What about the GI50 [53] of the same compound?
**A.** 26.8 µM (inactive)

**Q.** `COc1ccc(OC)c(NC(=O)C(=O)Nn2c(S)nc3ccccc3c2=O)c1` was tested. Which GI50 [1] did it give?
**A.** > 100 µM (inactive)

**Q.** What about the GI50 [2] of the same compound?
**A.** > 100 µM (inactive)

**Q.** What about the GI50 [3] of the same compound?
**A.** > 100 µM (inactive)

**Q.** And the GI50 [4]?
**A.** > 100 µM (inactive)

**Q.** What about the GI50 [5] of the same compound?
**A.** > 100 µM (inactive)

**Q.** What about the GI50 [6] of the same compound?
**A.** > 100 µM (inactive)

**Q.** What about the GI50 [7] of the same compound?
**A.** > 100 µM (inactive)

**Q.** What about the GI50 [10] of the same compound?
**A.** 82.2 µM (inactive)

**Q.** What about the GI50 [54] of the same compound?
**A.** > 100 µM (inactive)

**Q.** And the GI50 [11]?
**A.** > 100 µM (inactive)

**Q.** What about the GI50 [12] of the same compound?
**A.** > 100 µM

**Q.** And the GI50 [13]?
**A.** > 100 µM (inactive)

**Q.** And the GI50 [14]?
**A.** > 100 µM (inactive)

**Q.** What about the GI50 [15] of the same compound?
**A.** > 100 µM (inactive)

**Q.** And the GI50 [16]?
**A.** > 100 µM (inactive)

**Q.** What about the GI50 [17] of the same compound?
**A.** > 100 µM (inactive)

**Q.** And the GI50 [55]?
**A.** 88.1 µM (inactive)

**Q.** What about the GI50 [56] of the same compound?
**A.** > 100 µM (inactive)

**Q.** What about the GI50 [18] of the same compound?
**A.** > 100 µM (inactive)

**Q.** What about the GI50 [57] of the same compound?
**A.** > 100 µM (inactive)

**Q.** And the GI50 [19]?
**A.** > 100 µM (inactive)

**Q.** What about the GI50 [20] of the same compound?
**A.** > 100 µM (inactive)

**Q.** And the GI50 [58]?
**A.** > 100 µM (inactive)

**Q.** What about the GI50 [21] of the same compound?
**A.** > 100 µM (inactive)

**Q.** What about the GI50 [22] of the same compound?
**A.** > 100 µM (inactive)

**Q.** What about the GI50 [23] of the same compound?
**A.** > 100 µM (inactive)

**Q.** And the GI50 [24]?
**A.** > 100 µM (inactive)

**Q.** And the GI50 [25]?
**A.** > 100 µM (inactive)

**Q.** And the GI50 [26]?
**A.** > 100 µM (inactive)

**Q.** And the GI50 [27]?
**A.** > 100 µM (inactive)

**Q.** And the GI50 [28]?
**A.** > 100 µM (inactive)

**Q.** And the GI50 [29]?
**A.** > 100 µM (inactive)

**Q.** And the GI50 [30]?
**A.** > 100 µM (inactive)

**Q.** What about the GI50 [31] of the same compound?
**A.** > 100 µM (inactive)

**Q.** And the GI50 [32]?
**A.** > 100 µM (inactive)

**Q.** What about the GI50 [33] of the same compound?
**A.** > 100 µM (inactive)

**Q.** What about the GI50 [34] of the same compound?
**A.** > 100 µM (inactive)

**Q.** What about the GI50 [59] of the same compound?
**A.** > 100 µM (inactive)

**Q.** And the GI50 [35]?
**A.** > 100 µM (inactive)

**Q.** And the GI50 [36]?
**A.** > 100 µM (inactive)

**Q.** And the GI50 [37]?
**A.** > 100 µM (inactive)

**Q.** And the GI50 [38]?
**A.** > 100 µM (inactive)

**Q.** What about the GI50 [39] of the same compound?
**A.** > 100 µM (inactive)

**Q.** What about the GI50 [40] of the same compound?
**A.** > 100 µM (inactive)

**Q.** And the GI50 [41]?
**A.** > 100 µM (inactive)

**Q.** What about the GI50 [42] of the same compound?
**A.** > 100 µM (inactive)

**Q.** What about the GI50 [43] of the same compound?
**A.** > 100 µM (inactive)

**Q.** And the GI50 [44]?
**A.** > 100 µM (inactive)

**Q.** What about the GI50 [45] of the same compound?
**A.** > 100 µM (inactive)

**Q.** And the GI50 [46]?
**A.** > 100 µM (inactive)

**Q.** And the GI50 [47]?
**A.** > 100 µM (inactive)

**Q.** And the GI50 [48]?
**A.** > 100 µM (inactive)

**Q.** And the GI50 [49]?
**A.** > 100 µM (inactive)

**Q.** What about the GI50 [50] of the same compound?
**A.** > 100 µM (inactive)

**Q.** And the GI50 [51]?
**A.** > 100 µM (inactive)

**Q.** And the GI50 [52]?
**A.** > 100 µM (inactive)

**Q.** And the GI50 [53]?
**A.** > 100 µM (inactive)

Reference: ChEMBL document CHEMBL1201862, “PubChem BioAssay data set” (2004)
